Key:
Mu-type opioid receptor = Mu-type opioid receptor (Homo sapiens, UniProt P35372)
[1] = target: Sodium-dependent serotonin transporter (Homo sapiens, UniProt P31645)
[2] = target: T1, Alpha-1A adrenergic receptor (Homo sapiens, UniProt P35348); format: functional, cell-based
T1 sequence (P35348 whole entry): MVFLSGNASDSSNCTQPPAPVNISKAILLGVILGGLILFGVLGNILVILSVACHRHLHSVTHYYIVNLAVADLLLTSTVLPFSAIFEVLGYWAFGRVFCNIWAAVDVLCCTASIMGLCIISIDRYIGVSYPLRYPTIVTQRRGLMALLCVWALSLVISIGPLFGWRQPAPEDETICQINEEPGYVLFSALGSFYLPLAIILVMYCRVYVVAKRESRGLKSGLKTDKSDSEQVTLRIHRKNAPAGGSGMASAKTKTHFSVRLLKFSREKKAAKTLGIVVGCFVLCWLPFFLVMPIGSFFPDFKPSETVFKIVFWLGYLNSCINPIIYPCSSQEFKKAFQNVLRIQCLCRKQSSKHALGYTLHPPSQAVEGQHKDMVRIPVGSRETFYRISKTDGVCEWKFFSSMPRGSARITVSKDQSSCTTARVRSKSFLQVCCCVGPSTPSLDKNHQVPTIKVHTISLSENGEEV

Adenosine receptor A3 = target: T2, Adenosine receptor A3 (Homo sapiens, UniProt P0DMS8)
T2 sequence (P0DMS8 whole entry): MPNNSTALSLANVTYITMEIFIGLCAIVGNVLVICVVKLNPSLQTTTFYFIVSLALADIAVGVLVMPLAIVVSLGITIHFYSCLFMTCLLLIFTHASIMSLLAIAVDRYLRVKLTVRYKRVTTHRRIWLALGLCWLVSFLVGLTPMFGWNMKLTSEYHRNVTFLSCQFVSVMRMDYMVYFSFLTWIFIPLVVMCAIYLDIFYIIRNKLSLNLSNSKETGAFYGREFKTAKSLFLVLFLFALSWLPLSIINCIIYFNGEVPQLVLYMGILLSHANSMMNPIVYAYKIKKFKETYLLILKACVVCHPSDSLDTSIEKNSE

Acetylcholinesterase = Acetylcholinesterase (Homo sapiens, UniProt P22303); format: functional
Chain of Acetylcholinesterase (P22303 whole entry): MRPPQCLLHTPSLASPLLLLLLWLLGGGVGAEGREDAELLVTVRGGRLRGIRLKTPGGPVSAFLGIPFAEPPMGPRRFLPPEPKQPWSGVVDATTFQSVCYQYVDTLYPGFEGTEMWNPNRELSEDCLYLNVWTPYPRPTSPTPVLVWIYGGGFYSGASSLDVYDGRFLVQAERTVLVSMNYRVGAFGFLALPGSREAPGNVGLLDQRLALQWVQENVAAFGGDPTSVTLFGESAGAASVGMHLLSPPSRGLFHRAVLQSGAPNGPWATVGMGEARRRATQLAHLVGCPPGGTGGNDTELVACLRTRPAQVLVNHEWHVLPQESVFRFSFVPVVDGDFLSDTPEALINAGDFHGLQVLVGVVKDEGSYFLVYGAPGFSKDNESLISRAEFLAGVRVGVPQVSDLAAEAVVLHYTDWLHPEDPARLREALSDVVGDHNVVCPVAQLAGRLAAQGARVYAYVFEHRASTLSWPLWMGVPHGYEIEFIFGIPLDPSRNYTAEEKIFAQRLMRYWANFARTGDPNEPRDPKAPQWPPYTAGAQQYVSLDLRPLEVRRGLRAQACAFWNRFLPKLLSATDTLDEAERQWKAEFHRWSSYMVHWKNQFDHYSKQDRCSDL

[3] = target: cGMP-inhibited 3',5'-cyclic phosphodiesterase 3A (Homo sapiens, UniProt Q14432); format: functional
Chain of cGMP-inhibited 3',5'-cyclic phosphodiesterase 3A (Q14432 whole entry): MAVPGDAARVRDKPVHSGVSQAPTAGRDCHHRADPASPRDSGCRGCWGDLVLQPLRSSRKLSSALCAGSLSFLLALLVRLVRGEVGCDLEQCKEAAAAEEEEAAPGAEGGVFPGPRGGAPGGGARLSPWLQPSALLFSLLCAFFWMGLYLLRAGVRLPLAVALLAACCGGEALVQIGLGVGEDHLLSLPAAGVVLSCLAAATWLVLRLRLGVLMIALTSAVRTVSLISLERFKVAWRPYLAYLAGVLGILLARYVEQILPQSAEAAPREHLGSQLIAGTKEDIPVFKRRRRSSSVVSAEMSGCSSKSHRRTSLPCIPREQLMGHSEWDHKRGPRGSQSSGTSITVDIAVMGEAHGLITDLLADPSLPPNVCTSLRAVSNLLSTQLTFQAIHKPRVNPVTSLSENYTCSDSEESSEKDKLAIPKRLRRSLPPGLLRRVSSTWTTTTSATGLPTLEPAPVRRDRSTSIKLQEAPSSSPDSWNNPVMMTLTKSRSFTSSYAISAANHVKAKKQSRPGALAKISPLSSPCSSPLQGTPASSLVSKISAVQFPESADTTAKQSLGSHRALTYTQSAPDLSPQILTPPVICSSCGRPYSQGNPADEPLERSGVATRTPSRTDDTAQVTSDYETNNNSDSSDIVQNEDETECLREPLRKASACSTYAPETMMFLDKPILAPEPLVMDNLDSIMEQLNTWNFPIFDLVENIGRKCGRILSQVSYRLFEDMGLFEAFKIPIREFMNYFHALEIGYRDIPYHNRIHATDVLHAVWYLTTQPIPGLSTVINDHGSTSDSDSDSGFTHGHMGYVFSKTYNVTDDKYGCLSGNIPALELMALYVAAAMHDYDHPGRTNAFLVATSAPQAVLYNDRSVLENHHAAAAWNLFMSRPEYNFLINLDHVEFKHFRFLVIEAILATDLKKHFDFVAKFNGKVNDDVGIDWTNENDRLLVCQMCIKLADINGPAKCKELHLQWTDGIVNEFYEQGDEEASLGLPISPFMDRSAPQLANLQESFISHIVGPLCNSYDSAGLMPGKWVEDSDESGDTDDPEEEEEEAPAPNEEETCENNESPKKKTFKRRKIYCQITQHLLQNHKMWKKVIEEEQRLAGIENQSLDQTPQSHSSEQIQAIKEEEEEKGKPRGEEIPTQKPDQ

Histamine H3 receptor = Histamine H3 receptor (Homo sapiens, UniProt Q9Y5N1)
Chain of Histamine H3 receptor (Q9Y5N1 whole entry): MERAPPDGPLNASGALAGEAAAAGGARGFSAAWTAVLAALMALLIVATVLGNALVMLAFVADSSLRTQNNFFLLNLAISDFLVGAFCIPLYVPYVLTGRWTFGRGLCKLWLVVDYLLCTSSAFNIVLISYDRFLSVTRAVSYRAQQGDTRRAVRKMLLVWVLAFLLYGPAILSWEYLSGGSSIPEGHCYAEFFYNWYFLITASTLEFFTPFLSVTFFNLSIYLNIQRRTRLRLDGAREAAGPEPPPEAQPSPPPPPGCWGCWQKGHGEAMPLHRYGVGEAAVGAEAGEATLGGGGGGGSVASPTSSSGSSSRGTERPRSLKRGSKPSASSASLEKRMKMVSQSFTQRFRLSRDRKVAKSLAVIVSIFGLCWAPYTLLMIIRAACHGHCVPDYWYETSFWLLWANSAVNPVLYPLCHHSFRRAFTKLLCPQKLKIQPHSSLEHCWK

[4] = target: T3, Prostaglandin G/H synthase 1 (Homo sapiens, UniProt P23219); format: functional
T3 sequence (P23219 whole entry): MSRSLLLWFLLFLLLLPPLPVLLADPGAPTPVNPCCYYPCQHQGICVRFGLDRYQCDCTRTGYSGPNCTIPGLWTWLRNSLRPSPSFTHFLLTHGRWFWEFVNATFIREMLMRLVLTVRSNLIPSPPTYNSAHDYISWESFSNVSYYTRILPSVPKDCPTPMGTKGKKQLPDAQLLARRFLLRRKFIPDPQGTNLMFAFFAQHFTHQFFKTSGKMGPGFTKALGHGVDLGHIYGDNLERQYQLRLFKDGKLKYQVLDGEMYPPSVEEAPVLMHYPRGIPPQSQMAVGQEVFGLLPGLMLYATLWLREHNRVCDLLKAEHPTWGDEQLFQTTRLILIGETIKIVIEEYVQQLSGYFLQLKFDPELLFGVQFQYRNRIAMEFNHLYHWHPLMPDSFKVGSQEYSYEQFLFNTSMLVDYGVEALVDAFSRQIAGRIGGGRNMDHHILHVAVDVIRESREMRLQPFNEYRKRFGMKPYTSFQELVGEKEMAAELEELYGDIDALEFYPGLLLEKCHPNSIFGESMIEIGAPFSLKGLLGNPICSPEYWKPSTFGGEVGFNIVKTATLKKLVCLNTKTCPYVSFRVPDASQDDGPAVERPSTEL

[5] = target: T3, Prostaglandin G/H synthase 1; format: functional; remark: listed apart in the source
[6] = target: Sodium-dependent dopamine transporter (Homo sapiens, UniProt Q01959)
Chain of Sodium-dependent dopamine transporter (Q01959 whole entry): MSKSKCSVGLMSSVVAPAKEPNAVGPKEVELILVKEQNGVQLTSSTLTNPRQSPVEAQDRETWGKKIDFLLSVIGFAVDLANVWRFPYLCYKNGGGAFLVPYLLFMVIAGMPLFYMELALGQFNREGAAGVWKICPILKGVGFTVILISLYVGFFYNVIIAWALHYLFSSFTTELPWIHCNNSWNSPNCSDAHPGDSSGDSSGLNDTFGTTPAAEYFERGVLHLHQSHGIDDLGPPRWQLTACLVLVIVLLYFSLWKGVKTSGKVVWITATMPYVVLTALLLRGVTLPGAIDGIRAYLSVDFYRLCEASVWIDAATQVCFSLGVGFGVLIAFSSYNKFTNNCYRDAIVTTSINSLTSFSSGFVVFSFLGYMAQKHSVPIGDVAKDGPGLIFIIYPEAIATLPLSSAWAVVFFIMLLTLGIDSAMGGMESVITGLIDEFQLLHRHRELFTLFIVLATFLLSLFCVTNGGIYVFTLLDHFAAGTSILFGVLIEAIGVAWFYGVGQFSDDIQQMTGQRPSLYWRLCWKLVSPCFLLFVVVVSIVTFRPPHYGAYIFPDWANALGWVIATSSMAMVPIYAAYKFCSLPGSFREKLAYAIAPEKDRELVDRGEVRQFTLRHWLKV

[7] = target: T4, Muscarinic acetylcholine receptor M2 (Homo sapiens, UniProt P08172)
T4 sequence (P08172 whole entry): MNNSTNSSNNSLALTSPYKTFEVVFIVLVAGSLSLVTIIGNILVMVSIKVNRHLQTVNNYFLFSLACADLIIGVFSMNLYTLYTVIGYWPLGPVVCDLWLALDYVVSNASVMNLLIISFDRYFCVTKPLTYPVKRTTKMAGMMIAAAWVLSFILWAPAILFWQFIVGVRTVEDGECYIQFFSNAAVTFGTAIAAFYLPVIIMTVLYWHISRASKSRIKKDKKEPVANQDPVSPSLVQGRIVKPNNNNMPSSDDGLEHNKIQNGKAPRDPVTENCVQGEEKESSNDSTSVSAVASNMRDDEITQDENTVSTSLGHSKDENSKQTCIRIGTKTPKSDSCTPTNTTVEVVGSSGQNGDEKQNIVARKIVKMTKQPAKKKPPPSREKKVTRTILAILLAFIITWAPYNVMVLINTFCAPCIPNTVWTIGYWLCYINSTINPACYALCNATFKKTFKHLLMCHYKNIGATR

Prothrombin = Prothrombin (Homo sapiens, UniProt P00734); format: functional
Progesterone receptor = target: T5, Progesterone receptor (Homo sapiens, UniProt P06401)
T5 sequence (P06401 whole entry): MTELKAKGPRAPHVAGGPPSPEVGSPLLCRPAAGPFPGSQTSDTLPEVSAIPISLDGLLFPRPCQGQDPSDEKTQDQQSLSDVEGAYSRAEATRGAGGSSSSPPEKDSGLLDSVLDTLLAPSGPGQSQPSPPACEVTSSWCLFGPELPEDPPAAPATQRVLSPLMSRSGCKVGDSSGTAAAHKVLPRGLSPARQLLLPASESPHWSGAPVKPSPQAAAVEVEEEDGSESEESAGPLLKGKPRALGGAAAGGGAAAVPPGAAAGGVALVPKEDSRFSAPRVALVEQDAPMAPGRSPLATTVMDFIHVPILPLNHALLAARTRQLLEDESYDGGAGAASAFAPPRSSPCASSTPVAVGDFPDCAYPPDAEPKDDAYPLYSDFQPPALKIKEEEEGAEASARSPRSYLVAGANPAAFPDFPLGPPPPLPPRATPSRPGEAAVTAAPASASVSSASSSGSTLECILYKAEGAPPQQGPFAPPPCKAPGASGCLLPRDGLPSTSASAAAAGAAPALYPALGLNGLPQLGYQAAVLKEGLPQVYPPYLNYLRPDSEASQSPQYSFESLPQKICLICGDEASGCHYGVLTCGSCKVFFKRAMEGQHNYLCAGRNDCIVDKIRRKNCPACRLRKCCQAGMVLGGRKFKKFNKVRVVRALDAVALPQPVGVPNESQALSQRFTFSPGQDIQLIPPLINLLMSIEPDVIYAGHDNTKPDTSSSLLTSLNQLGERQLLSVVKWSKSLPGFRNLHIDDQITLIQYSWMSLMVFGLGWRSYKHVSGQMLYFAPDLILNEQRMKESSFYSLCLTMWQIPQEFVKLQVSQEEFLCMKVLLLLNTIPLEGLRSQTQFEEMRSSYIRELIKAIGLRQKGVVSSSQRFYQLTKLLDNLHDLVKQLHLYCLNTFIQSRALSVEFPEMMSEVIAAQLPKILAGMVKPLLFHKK
Also: assay procedure not described here.

Chain of Mu-type opioid receptor (P35372 whole entry): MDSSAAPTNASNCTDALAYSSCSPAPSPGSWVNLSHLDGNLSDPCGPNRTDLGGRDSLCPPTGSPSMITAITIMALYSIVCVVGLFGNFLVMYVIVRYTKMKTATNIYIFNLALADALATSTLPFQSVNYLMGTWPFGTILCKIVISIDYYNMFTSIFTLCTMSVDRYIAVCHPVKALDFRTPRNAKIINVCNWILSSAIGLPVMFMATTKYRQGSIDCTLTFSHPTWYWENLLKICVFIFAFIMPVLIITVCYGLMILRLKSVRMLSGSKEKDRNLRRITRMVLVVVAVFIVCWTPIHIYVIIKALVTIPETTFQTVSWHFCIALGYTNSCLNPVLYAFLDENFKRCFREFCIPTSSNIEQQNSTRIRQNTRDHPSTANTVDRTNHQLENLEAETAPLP
Chain of Sodium-dependent serotonin transporter (P31645 whole entry): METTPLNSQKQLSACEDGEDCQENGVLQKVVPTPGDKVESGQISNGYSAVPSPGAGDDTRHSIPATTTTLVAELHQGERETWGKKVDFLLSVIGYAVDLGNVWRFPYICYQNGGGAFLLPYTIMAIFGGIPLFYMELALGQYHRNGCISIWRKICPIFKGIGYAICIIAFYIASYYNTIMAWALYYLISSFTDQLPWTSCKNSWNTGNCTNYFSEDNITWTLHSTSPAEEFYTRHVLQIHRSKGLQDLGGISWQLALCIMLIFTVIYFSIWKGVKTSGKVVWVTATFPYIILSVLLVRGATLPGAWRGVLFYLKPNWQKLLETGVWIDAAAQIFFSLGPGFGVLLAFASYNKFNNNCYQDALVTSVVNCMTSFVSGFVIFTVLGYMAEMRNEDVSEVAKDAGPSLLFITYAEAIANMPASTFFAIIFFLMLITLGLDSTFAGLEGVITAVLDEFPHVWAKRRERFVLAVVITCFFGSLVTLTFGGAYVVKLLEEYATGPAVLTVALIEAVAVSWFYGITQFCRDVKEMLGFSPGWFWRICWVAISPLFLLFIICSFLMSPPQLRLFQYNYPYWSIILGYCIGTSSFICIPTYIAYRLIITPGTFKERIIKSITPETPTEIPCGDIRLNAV

SMILES	AC50 (Mu-type opioid receptor)	AC50 [1]	AC50 [2]	AC50 (Adenosine receptor A3)	AC50 (Acetylcholinesterase)	AC50 [3]	AC50 (Histamine H3 receptor)	AC50 [4]	AC50 [5]	AC50 [6]	AC50 [7]	AC50 (Prothrombin)	AC50 (Progesterone receptor)
CCOc1ccc(Cc2nccc3cc(OCC)c(OCC)cc23)cc1OCC [ETHAVERINE]	> 30 µM	> 30 µM	> 30 µM	3.11 µM	> 30 µM	3.69 µM	> 30 µM	> 10 µM	> 30 µM	> 30 µM	> 30 µM	> 30 µM	> 30 µM
Cc1c(C(C)C)c(=O)n(-c2ccccc2)n1C [PROPYPHENAZONE]	> 30 µM	> 30 µM	> 30 µM	21.9 µM	> 30 µM	> 30 µM	> 30 µM	> 30 µM	> 30 µM	> 30 µM	> 30 µM	> 30 µM	> 30 µM
CC1(C)S[C@@H]2[C@H](NC(=O)[C@H](NC(=O)c3cnc4cccnc4c3O)c3ccccc3)C(=O)N2[C@H]1C(=O)O [APALCILLIN]	> 30 µM	> 30 µM	> 30 µM	29 µM	> 30 µM	> 30 µM	> 30 µM	14.6 µM	17.6 µM	> 30 µM	> 30 µM	> 30 µM	> 30 µM
CCOC1O[C@H]([C@@H](COCc2ccccc2)OCc2ccccc2)[C@H](OCc2ccccc2)[C@H]1O (some centres not stated) [TRIBENOSIDE]	> 30 µM	> 30 µM	> 30 µM	14 µM	> 30 µM	> 30 µM	> 30 µM	> 30 µM	> 30 µM	> 30 µM	> 30 µM	> 30 µM	> 30 µM
CC(C)NC[C@H](O)COc1ccc(CCOCC2CC2)cc1 [LEVOBETAXOLOL]	> 30 µM	> 30 µM	> 30 µM	> 30 µM	> 30 µM	> 30 µM	> 30 µM	> 30 µM	> 30 µM	> 30 µM	> 30 µM	> 30 µM	> 30 µM
CCCCC(=O)O[C@H]1CC[C@H]2[C@@H]3CCc4cc(O)ccc4[C@H]3CC[C@]12C [ESTRADIOL VALERATE]	> 30 µM	> 30 µM	> 30 µM	6.74 µM	> 30 µM	23.9 µM	> 30 µM	> 30 µM	7.05 µM	> 30 µM	> 30 µM	> 30 µM	0.234 µM
COCC(=O)O[C@]1(CCN(C)CCCc2nc3ccccc3[nH]2)CCc2cc(F)ccc2[C@@H]1C(C)C [MIBEFRADIL]	0.979 µM	22.8 µM	25.9 µM	14.3 µM	> 30 µM	> 30 µM	> 30 µM	> 30 µM	> 30 µM	9.53 µM	3.85 µM	> 30 µM	> 30 µM
Cc1ncc(CO)c(CO)c1O [PYRIDOXINE]	> 30 µM	> 30 µM	> 30 µM	> 30 µM	> 30 µM	> 30 µM	> 30 µM	> 3 µM	> 30 µM	> 30 µM	> 30 µM	> 30 µM	> 30 µM
COc1cc(C[C@@H]2NCCc3cc(O)c(O)cc32)cc(OC)c1OC [TRETOQUINOL]	15.5 µM	> 30 µM	> 30 µM	> 30 µM	> 30 µM	> 30 µM	> 30 µM	5.31 µM	> 30 µM	> 30 µM	> 30 µM	> 30 µM	> 30 µM
COC(=O)N(C)c1c(N)nc(-c2nn(Cc3ccccc3F)c3ncccc23)nc1N [RIOCIGUAT]	> 30 µM	> 30 µM	> 30 µM	13.9 µM	> 30 µM	> 30 µM	> 30 µM	> 30 µM	> 30 µM	> 30 µM	> 30 µM	> 30 µM	> 30 µM
N[C@@H](Cc1ccc(O)cc1)C(=O)O [TYROSINE]	> 30 µM	> 30 µM	> 30 µM	> 30 µM	> 30 µM	> 30 µM	> 30 µM	> 30 µM	> 30 µM	> 30 µM	> 30 µM	> 30 µM	> 30 µM
CC(C)=CCC/C(C)=C/CC/C(C)=C/CC/C(C)=C/CC1=C(C)C(=O)c2ccccc2C1=O [MENATETRENONE]	> 30 µM	> 30 µM	> 30 µM	4.72 µM	> 30 µM	5.09 µM	> 30 µM	0.78 µM	13.5 µM	> 30 µM	> 30 µM	> 30 µM	13.5 µM
CC1(C)CCC(C)(C)c2cc(NC(=O)c3ccc(C(=O)O)cc3)ccc21 [TAMIBAROTENE]	> 30 µM	> 30 µM	> 30 µM	29.8 µM	> 30 µM	> 30 µM	> 30 µM	> 30 µM	> 30 µM	> 30 µM	> 30 µM	> 30 µM	29.2 µM
[H]/N=C(/N)NS(=O)(=O)c1ccc(N)cc1 [SULFAGUANIDINE]	> 30 µM	> 30 µM	> 30 µM	> 30 µM	> 30 µM	> 30 µM	> 30 µM	> 30 µM	> 30 µM	> 30 µM	> 30 µM	> 30 µM	> 30 µM

From ChEMBL document CHEMBL5291721, “A preclinical secondary pharmacology resource illuminates target-adverse drug reaction associations of marketed drugs” (Nat Commun, 2023)
